We go through nine compounds from ChEMBL document CHEMBL1201862, “PubChem BioAssay data set” (2004).

Some test systems named below: 786-0; HCC 2998; HCT-15; HOP-62; HOP-92; Hs-578T; MCF7; MDA-MB-435; MDA-N; MOLT-4; NCI-H226; OVCAR-4; OVCAR-5; SF-295; SK-OV-3; SN12C; T47D; U-251; UACC-257; UO-31.
What all share (test): NCI-60 cell line screen, 48 h

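1) Cells in 96-well plates. 2) Compound, 48 h, 5 concentrations. 3) Linear interpolation between surrounding doses. 4) Unreached endpoint = highest concentration. Abbreviation: GI50, concentration required for 50% inhibition of growth.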 Activity calls are given as the source filed them. No stated cut-off is given here; in the data, active = GI50 up to about 1.1 µM and inactive = higher. *1 amine or outer side, *2 acyl side, *3 side chain or, on linkers, in order; H or OH if unused. Where a SMILES comes first, the peptide text is derived from it. Bridges are numbered along the chain shown (N, C = ends). Roman numbers before positions name the chains, in order. [ ]: non-standard residue; d: D form. Actinocin(9to1) = Cc1c2oc3c(C)ccc(C(=O)[*:1])c3nc-2c(C(=O)[*:2])c(N)c1=O; NMeV = CN[CH](C(=O)O)C(C)C; Sar = CNCC(=O)O

Consider `Clc1ccc(Cc2nc3ccccc3o2)cc1`, for which the GI50 with 786-0 is 96.4 µM (inactive); with HCC 2998, 54 µM (inactive); with HCT-15 it was 39.3 µM; in the test on HOP-62 it was > 100 µM (inactive); with HOP-92, > 100 µM (inactive); in the test on Hs-578T, > 100 µM (inactive). Moreover, the GI50 in the test on MCF7 is 51.4 µM (inactive); in the test with MDA-MB-435, > 100 µM (inactive); in the test with MDA-N, > 100 µM (inactive); in the test with MOLT-4, 38.5 µM (inactive); in the test with NCI-H226, 40.4 µM (inactive); in the test with OVCAR-4, 48.2 µM (inactive). Besides, the GI50 in the test with OVCAR-5 was > 100 µM (inactive); in the test on SF-295 it was 57.8 µM (inactive); with SK-OV-3, > 100 µM (inactive); with SN12C, > 100 µM (inactive); in the test with T47D it was 27.2 µM (inactive); in the test on U-251 it was 72.1 µM (inactive). Besides, the GI50 in the test with UACC-257 is 52.1 µM (inactive); in the test with UO-31, 67.6 µM (inactive).
For `O=C1c2ccccc2-c2c1c1ccccc1c(=O)n2-c1cccnc1`, the GI50 in the test with 786-0 is 9.91 µM (inactive); in the test on HCC 2998, > 100 µM (inactive); in the test with HCT-15, 24.9 µM; in the test on HOP-62, 12.1 µM (inactive); in the test with HOP-92, 8.17 µM (inactive); in the test with Hs-578T, 37 µM (inactive). Also, the GI50 in the test with MCF7 is 22.5 µM (inactive); in the test with MDA-MB-435, > 100 µM (inactive); with MDA-N, > 100 µM (inactive); with MOLT-4 it was 3.78 µM (inactive); in the test with NCI-H226, 61.5 µM (inactive); with OVCAR-4, > 49.3 µM (inactive). The GI50 with OVCAR-5 is > 100 µM (inactive); in the test on SF-295, 27 µM (inactive); with SK-OV-3 it was 42.6 µM (inactive); in the test on SN12C it was > 52.2 µM (inactive); in the test with T47D it was > 64.4 µM (inactive); with U-251 it was 22.7 µM (inactive). Besides, the figures for the GI50 in the test on UACC-257 and in the test with UO-31 were > 100 µM (inactive) and > 48.8 µM (inactive), respectively.
On to `Cc1c2oc3c(C)ccc(C(=O)NC4C(=O)NC(C(C)C)C(=O)N5CCCC5C(=O)N(C)CC(=O)N(C)C(C(C)C)C(=O)OC4C)c3nc-2c(C(=O)NC2C(=O)NC(C(C)C)C(=O)N3CCCC3C(=O)N(C)CC(=O)N(C)C(C(C)C)C(=O)OC2C)c(N)c1=O` (stereo not given) (I: TVP[Sar][NMeV] / II: TVP[Sar][NMeV]; ester I:1-I:C, II:1-II:C; linker I:N-II:N via Actinocin(9to1); configuration not given here), for which the GI50 was 0.000143 µM (active) with 786-0; 0.00684 µM (active) in the test with HCC 2998; 0.0123 µM in the test with HCT-15; 0.000486 µM (active) in the test with HOP-62; 0.00177 µM (active) in the test on HOP-92; 0.000143 µM (active) with Hs-578T. Further, the GI50 with MCF7 was < 0.0001 µM (active); in the test with MDA-MB-435, 0.000461 µM (active); in the test with MDA-N it was 0.000197 µM (active); with MOLT-4, < 0.0001 µM (active); in the test on NCI-H226 it was 0.000891 µM (active); in the test on OVCAR-4 it was 0.000445 µM (active). Moreover, the GI50 with OVCAR-5 is 0.00181 µM (active); in the test with SF-295, 0.000522 µM (active); in the test with SK-OV-3 it was 0.0017 µM (active); with SN12C, 0.00011 µM (active); with T47D, 0.000507 µM (active); in the test with U-251 it was < 0.0001 µM (active). Also, the GI50 in the test on UACC-257 was 0.000957 µM (active); with UO-31 it was 0.0152 µM (active).
On to `CCCCCC(O)[C@H]1C(=O)C[C@@H](O[Si](C)(C)C(C)(C)C)[C@@H]1/C=C/CCOCc1ccccc1` (stereo not given in full), for which the GI50 with 786-0 was 11.4 µM (inactive); in the test with HCC 2998 it was 14.9 µM (inactive); in the test with HCT-15, 10.6 µM; with HOP-62 it was 17.3 µM (inactive); in the test on HOP-92, 12.4 µM (inactive); in the test with Hs-578T, 7.19 µM (inactive). In addition, the GI50 in the test with MCF7 was 9.02 µM (inactive); in the test with MDA-MB-435, 7.31 µM (inactive); in the test with MDA-N, 9.51 µM (inactive); in the test on MOLT-4 it was 4.46 µM (inactive); in the test on NCI-H226, 14 µM (inactive); in the test with OVCAR-4 it was 12.6 µM (inactive). The GI50 is 17.9 µM (inactive) in the test with OVCAR-5; 2.39 µM (inactive) in the test on SF-295; 16.8 µM (inactive) in the test on SK-OV-3; 19.1 µM (inactive) in the test with SN12C; 13.6 µM (inactive) in the test on T47D; 12.1 µM (inactive) in the test on U-251. The GI50 was 13.3 µM (inactive) in the test with UACC-257 and 14.5 µM (inactive) with UO-31.
Consider `N#CC1(C#N)C(C#N)(C#N)C1(C#N)C(N)=O`, for which the GI50 with 786-0 was > 100 µM (inactive); in the test on HCC 2998, > 100 µM (inactive); in the test with HCT-15, over 100 µM; in the test with HOP-62, > 100 µM (inactive); with HOP-92 it was > 100 µM (inactive); in the test on Hs-578T it was > 100 µM (inactive). Further, the GI50 in the test on MCF7, in the test on MDA-MB-435, with MDA-N, in the test on MOLT-4, with NCI-H226 and in the test with OVCAR-4 was > 100 µM (inactive) throughout. The GI50 in the test on OVCAR-5, with SF-295, with SK-OV-3, in the test with SN12C, in the test on T47D and with U-251 was > 100 µM (inactive) each time. Moreover, the GI50 in the test with UACC-257 and in the test on UO-31 was > 100 µM (inactive) throughout.
In the case of `O=C1c2cccc3cc4ccccc4c(c23)C(=O)N1CCCNCCNCCCN1C(=O)c2cccc3cc4ccccc4c(c23)C1=O`, the GI50 in the test with 786-0 was 0.02 µM (active); in the test on HCC 2998, 0.0964 µM (active); in the test with HCT-15, 0.103 µM; with HOP-62, 0.0203 µM (active); in the test on HOP-92, 1 µM (active); in the test on Hs-578T it was 0.0635 µM (active). In addition, the GI50 was 0.0191 µM (active) with MCF7; 0.0421 µM (active) in the test on MDA-MB-435; 0.0546 µM (active) in the test on MDA-N; < 0.01 µM (active) with MOLT-4; 0.411 µM (active) in the test with NCI-H226; 0.129 µM (active) in the test with OVCAR-4. In addition, the GI50 in the test on OVCAR-5 was 0.257 µM (active); in the test with SF-295, 0.0182 µM (active); in the test on SK-OV-3 it was 0.31 µM (active); with SN12C, < 0.01 µM (active); in the test with T47D, 0.421 µM (active); in the test on U-251 it was 0.0264 µM (active). Also, the GI50 in the test on UACC-257 was 1.02 µM (active); in the test with UO-31, 0.33 µM (active).
In the case of `COc1ccc2c(c1OC)C(Br)CCC(Br)(Br)C2=O` (stereo not given), the GI50 is 4.23 µM (inactive) in the test on 786-0; 11.6 µM (inactive) with HCC 2998; 5.57 µM in the test with HCT-15; 18.9 µM (inactive) in the test on HOP-62; 3.52 µM (inactive) in the test with HOP-92; 18.5 µM (inactive) in the test on Hs-578T. Moreover, the GI50 in the test with MCF7 was 9.02 µM (inactive); in the test on MDA-MB-435, 6.41 µM (inactive); in the test with MDA-N, 3.99 µM (inactive); with MOLT-4 it was 1.75 µM (inactive); with NCI-H226 it was 14 µM (inactive); with OVCAR-4 it was 6 µM (inactive). Further, the GI50 with OVCAR-5 was 17.5 µM (inactive); in the test with SF-295 it was 17.6 µM (inactive); in the test with SK-OV-3 it was 16.4 µM (inactive); in the test with SN12C, 4.83 µM (inactive); in the test with T47D, 13.8 µM (inactive); with U-251 it was 16.7 µM (inactive). For the same compound, the GI50 is 14.6 µM (inactive) in the test on UACC-257 and 4.81 µM (inactive) with UO-31.
With `O=c1[nH]c(Br)nc2[nH]nnc12`, the GI50 was 25.1 µM (inactive) with 786-0; > 100 µM (inactive) in the test with HCC 2998; over 100 µM in the test on HCT-15; 17.7 µM (inactive) in the test on HOP-62; > 100 µM (inactive) in the test with HOP-92; 38.3 µM (inactive) with Hs-578T. Besides, the GI50 with MCF7 was 74.1 µM (inactive); in the test with MDA-MB-435 it was 19.3 µM (inactive); in the test on MDA-N, 38.9 µM (inactive); with MOLT-4 it was 2.73 µM (inactive); in the test on NCI-H226, > 100 µM (inactive); with OVCAR-4, 85.5 µM (inactive). Besides, the GI50 in the test with OVCAR-5 is > 100 µM (inactive); in the test on SF-295, 72.8 µM (inactive); in the test on SK-OV-3, 39.3 µM (inactive); with SN12C, 32.4 µM (inactive); in the test on T47D it was 26.2 µM (inactive); in the test with U-251, 68.7 µM (inactive). Besides, the GI50 in the test with UACC-257 was 55.6 µM (inactive); in the test with UO-31 it was 11.7 µM (inactive).
Turning to `O=C1c2ccccc2-n2c1nc1ccccc1c2=O` [TRYPTANTHRIN], the GI50 is 28.2 µM (inactive) in the test with 786-0; 29.4 µM (inactive) with HCC 2998; 3.6 µM in the test on HCT-15; 12.1 µM (inactive) in the test with HOP-62; 44.5 µM (inactive) in the test with HOP-92; 17.1 µM (inactive) in the test on Hs-578T. Moreover, the GI50 in the test with MCF7 was 7.19 µM (inactive); with MDA-MB-435, 1.85 µM (inactive); in the test on MDA-N, 18.2 µM (inactive); with MOLT-4, 7.94 µM (inactive); with NCI-H226, 30.9 µM (inactive); in the test on OVCAR-4, 19.1 µM (inactive). Moreover, the GI50 in the test with OVCAR-5 is 16 µM (inactive); with SF-295, 4.29 µM (inactive); in the test with SK-OV-3, > 100 µM (inactive); in the test on SN12C, 12.6 µM (inactive); in the test with T47D, 8.87 µM (inactive); in the test on U-251, 3.34 µM (inactive). In addition, the GI50 is 3.02 µM (inactive) in the test with UACC-257 and 5.06 µM (inactive) with UO-31.
